Measured values from patent US7250397B2, “Antiarrhythmic peptides” (Zealand Pharma A/S, priority 2000, dated 2007).
[ ]: non-standard residue; d: D form. Hyp = O=C(O)[C@@H]1C[C@@H](O)CN1

Legend:
[1] = In vitro stability test in rabbit plasma (heparin); format: in vitro ADME; settings: 37° C., 0.1 mg/ml, mean n=3
Description: (§1) The stability of peptides is analysed in different plasma and serum types. The peptides are incubated at 37° C. in plasma and samples taken at approx. 9 regular intervals between t=0 and t=156 min are analysed by HPLC.
(§2) This is done by subsequent injections of the drug, plasma, and a co-injection with the drug and the plasma, followed by optimisation of the LC method parameters until a satisfactory separation is obtained. Three parallel experiments are performed for each plasma type:100 μl of peptide is mixed with 900 μl plasma at t=0 and incubated at 37° C. (drug-plasma mixture conc. 0.1 mg/ml). Samples of 100 μl of the drug-plasma mixture are removed at appropriate intervals and the degradation stopped by precipitation of the sample with 10 μl MeCN:TFA 50:50 v/v. A control plasma sample without the drug treated in the same manner is also taken. The plasma samples are centrifuged for 15 min. at 12,000 rpm (Eppendorf centrifuge) at ambient temperature. The resulting supernatant solution is transferred to 300 μl HP autosamler vials and analyzed by HPLC. […] Temp.: 40° C. • Solvent: MeCN/MQW/TFA (0.1%). Run time: 25 min. • Inj.vol.:15 μL. […]
(§3) The samples are analyzed in the following order: blank, the peptide at 0.1 mg/mL, the plasma without the peptide, the three parallel samples for t=0, the three parallel samples for t=5 min. the three parallel samples for t=10 min. etc. […]

[2] = In vitro stability test in human serum; format: in vitro ADME; settings: 37° C., 0.1 mg/ml, mean n=3
Description: as §1, §2, §3

[3] = tested on: human osteoblastic cells; assay: Lucifer Yellow dye transfer in DDT-treated human osteoblast cells; format: cell-based; settings: DDT 13 μM, 60 minutes; control 14.5 cells
Description: Human osteoblast cells: Cells were isolated from human bone marrow obtained by puncture of the posterior iliac spine of healthy volunteers (aged 20-36): 10-15 ml marrow material was collected in 15 ml PBS+Ca, Mg (Life Technologies, Cat.No. 14040) with 100 U/ml Heparin (Sigma, Cat.No. H-3149). The mononuclear fraction of the marrow was isolated on a Lymphoprep gradient (Nycomed Pharma, Cat.No. 1001967), by centrifugation at 2200 rpm for 30 min. After harvesting, the mononuclear fraction was washed once with culture medium and centrifuged at 1800 rpm for 10 min. Subsequently cells were counted and plated in culture medium at 8×10^6 cells/100 mm dish. hOB medium (all reagents obtained from Life Technologies): MEM w/o Phenol Red w/Glutamax (Cat.No. 041-93013) supplemented with 10% heat inactivated fetal calf serum (Cat.No. 10106) and 0.1% Penicillin/Streptomycin (Cat.No. 15140). Medium was changed the following day and the cells were cultured at 37° C. in 5%CO2 with medium change every 7 days. After 3-4 weeks of culture the cells had reached 70% confluence. The medium was then supplemented with 100 nM Dexamethasone (Sigma, Cat.No. D-4902) for 7 days. […]
The dye Lucifer Yellow (LY) was injected into one single human osteoblast in a monolayer. After 30 seconds, the number of cells containing dye was assessed. […]

| Molecule | T1/2 [1] [h] | T1/2 [2] [h] | median number of cells containing dye [3] [cells] |
| --- | --- | --- | --- |
| H-PYNGAG[Hyp]-NH2 [Compound 27] | 3.8 | 3.1 | – |
| Clc1ccc(C(c2ccc(Cl)cc2)C(Cl)(Cl)Cl)cc1 [DDT, 1,1-bis(p-chlorophenyl)-2,2,2-trichlorethane] | – | – | 7 |
